Laboratory results reported in the NIST ThermoML archive (doi:10.1016/j.jct.2005.10.009).
Numbers after ± are expanded uncertainties.

Experiment: molar heat capacity at constant pressure; xn = mol fraction of the nth substance listed
Conditions: 101 kPa, Liquid, Small sample (50 mg) DSC

CCCCCCCCCCO [decan-1-ol] + CCCCCCC
molar heat capacity at constant pressure [J/K/mol]
Conditions	x1 = 0.0506	x1 = 0.0979	x1 = 0.1541	x1 = 0.2543	x1 = 0.3757	x1 = 0.5378	x1 = 0.7551	x1 = 0.9008	x1 = 1
290.91 K	235.98 ± 3.7	243.78 ± 3.8	252.15 ± 3.9	266.07 ± 4.1	282.7 ± 4.4	304.21 ± 4.7	333.09 ± 5.2	351.55 ± 5.5	364.49 ± 5.7
291.15 K	236.08 ± 3.7	243.9 ± 3.8	252.2 ± 3.9	266.16 ± 4.1	282.63 ± 4.4	304.17 ± 4.7	333.35 ± 5.2	351.9 ± 5.5	364.8 ± 5.7
292.15 K	236.53 ± 3.7	244.42 ± 3.8	252.79 ± 3.9	266.99 ± 4.1	283.4 ± 4.4	305.3 ± 4.7	334.38 ± 5.2	353.11 ± 5.5	366.05 ± 5.7
293.15 K	237.09 ± 3.7	245.13 ± 3.8	253.5 ± 3.9	267.69 ± 4.2	284.09 ± 4.4	306.17 ± 4.7	335.4 ± 5.2	354.31 ± 5.5	367.19 ± 5.7
294.15 K	237.67 ± 3.7	245.8 ± 3.8	254.28 ± 3.9	268.44 ± 4.2	284.97 ± 4.4	307.04 ± 4.8	336.39 ± 5.2	355.23 ± 5.5	368.25 ± 5.7
295.15 K	238.27 ± 3.7	246.44 ± 3.8	255.06 ± 4	269.19 ± 4.2	285.92 ± 4.4	308.08 ± 4.8	337.47 ± 5.2	356.26 ± 5.5	369.35 ± 5.7
296.15 K	238.89 ± 3.7	247.13 ± 3.8	255.82 ± 4	269.75 ± 4.2	286.81 ± 4.4	308.89 ± 4.8	338.44 ± 5.2	357.26 ± 5.5	370.35 ± 5.7
297.15 K	239.51 ± 3.7	247.87 ± 3.8	256.61 ± 4	270.59 ± 4.2	287.73 ± 4.5	309.97 ± 4.8	339.61 ± 5.3	358.4 ± 5.5	371.6 ± 5.8
298.15 K	239.86 ± 3.7	248.38 ± 3.9	257.16 ± 4	271.36 ± 4.2	288.4 ± 4.5	310.74 ± 4.8	340.46 ± 5.3	359.54 ± 5.6	372.77 ± 5.8
299.15 K	240.3 ± 3.7	248.86 ± 3.9	257.8 ± 4	272.19 ± 4.2	289.09 ± 4.5	311.53 ± 4.8	341.42 ± 5.3	360.58 ± 5.6	373.71 ± 5.8
300.15 K	240.83 ± 3.7	249.51 ± 3.9	258.45 ± 4	272.99 ± 4.2	289.92 ± 4.5	312.43 ± 4.8	342.44 ± 5.3	361.76 ± 5.6	374.91 ± 5.8
301.15 K	241.28 ± 3.7	250.01 ± 3.9	259.03 ± 4	273.68 ± 4.2	290.74 ± 4.5	313.24 ± 4.8	343.35 ± 5.3	362.66 ± 5.6	375.89 ± 5.8
302.15 K	241.86 ± 3.8	250.66 ± 3.9	259.8 ± 4	274.46 ± 4.2	291.61 ± 4.5	314.17 ± 4.9	344.4 ± 5.3	363.81 ± 5.6	377.05 ± 5.8
303.15 K	242.35 ± 3.8	251.17 ± 3.9	260.34 ± 4	275.23 ± 4.3	292.47 ± 4.5	315.15 ± 4.9	345.4 ± 5.3	364.87 ± 5.7	378.2 ± 5.9
304.15 K	242.86 ± 3.8	251.87 ± 3.9	261.18 ± 4	276.03 ± 4.3	293.43 ± 4.5	316.13 ± 4.9	346.52 ± 5.4	366.04 ± 5.7	379.47 ± 5.9
305.15 K	243.39 ± 3.8	252.56 ± 3.9	261.84 ± 4.1	276.84 ± 4.3	294.24 ± 4.6	317.05 ± 4.9	347.59 ± 5.4	367.12 ± 5.7	380.58 ± 5.9
306.15 K	243.87 ± 3.8	253.07 ± 3.9	262.53 ± 4.1	277.6 ± 4.3	295.15 ± 4.6	318 ± 4.9	348.57 ± 5.4	368.24 ± 5.7	381.75 ± 5.9
307.15 K	244.14 ± 3.8	253.41 ± 3.9	262.92 ± 4.1	278.04 ± 4.3	295.57 ± 4.6	318.55 ± 4.9	349.26 ± 5.4	368.97 ± 5.7	382.43 ± 5.9
308.15 K	245.18 ± 3.8	254.65 ± 4	264.24 ± 4.1	279.52 ± 4.3	297.18 ± 4.6	320.29 ± 5	351.13 ± 5.4	370.98 ± 5.8	384.6 ± 6
309.15 K	245.41 ± 3.8	255.04 ± 4	264.68 ± 4.1	280.05 ± 4.3	297.76 ± 4.6	320.96 ± 5	351.89 ± 5.5	371.76 ± 5.8	385.42 ± 6
310.15 K	245.95 ± 3.8	255.58 ± 4	265.32 ± 4.1	280.82 ± 4.3	298.67 ± 4.6	321.92 ± 5	352.97 ± 5.5	372.9 ± 5.8	386.61 ± 6
311.15 K	246.43 ± 3.8	256.31 ± 4	266.13 ± 4.1	281.69 ± 4.4	299.62 ± 4.6	323.01 ± 5	354.17 ± 5.5	374.19 ± 5.8	387.89 ± 6
312.15 K	246.88 ± 3.8	256.87 ± 4	266.75 ± 4.1	282.41 ± 4.4	300.41 ± 4.7	323.89 ± 5	355.15 ± 5.5	375.27 ± 5.8	389.03 ± 6
313.15 K	247.31 ± 3.8	257.46 ± 4	267.42 ± 4.1	283.25 ± 4.4	301.36 ± 4.7	324.89 ± 5	356.22 ± 5.5	376.4 ± 5.8	390.28 ± 6
314.15 K	247.77 ± 3.8	258.06 ± 4	268.13 ± 4.2	284.06 ± 4.4	302.25 ± 4.7	325.9 ± 5	357.35 ± 5.5	377.6 ± 5.8	391.58 ± 6.1
315.15 K	248.34 ± 3.9	258.68 ± 4	268.86 ± 4.2	284.88 ± 4.4	303.16 ± 4.7	326.94 ± 5.1	358.54 ± 5.5	378.81 ± 5.9	392.8 ± 6.1
316.15 K	248.75 ± 3.9	259.2 ± 4	269.56 ± 4.2	285.67 ± 4.4	304.03 ± 4.7	327.84 ± 5.1	359.56 ± 5.6	379.98 ± 5.9	394.11 ± 6.1
317.15 K	249.2 ± 3.9	259.91 ± 4	270.2 ± 4.2	286.49 ± 4.4	304.91 ± 4.7	328.86 ± 5.1	360.67 ± 5.6	381.22 ± 5.9	395.3 ± 6.1
318.15 K	249.65 ± 3.9	260.46 ± 4	270.95 ± 4.2	287.25 ± 4.5	305.87 ± 4.7	329.91 ± 5.1	361.79 ± 5.6	382.38 ± 5.9	396.66 ± 6.2
318.39 K	249.73 ± 3.9	260.52 ± 4	271.04 ± 4.2	287.43 ± 4.5	306.02 ± 4.7	330.09 ± 5.1	362.01 ± 5.6	382.62 ± 5.9	396.93 ± 6.2
